The values that follow are results of earlier work, collected in patent US11220530B2, “Nanospheres of SEC14-like proteins and cognate ligands” (UNIVERSITÄT BERN, priority 2016, dated 2022).

pKd: −log10 of the molar value.

The target of this data set is Cellular retinaldehyde-binding protein (CRALBP) (Bos taurus, UniProt P10123). The conditions noted are these: for pKd: cited from Saari and Bredberg, J Biol Chem 1987, read-out: Kd (affinity for CRALBP).
Chain of Cellular retinaldehyde-binding protein (CRALBP) (P10123 whole entry): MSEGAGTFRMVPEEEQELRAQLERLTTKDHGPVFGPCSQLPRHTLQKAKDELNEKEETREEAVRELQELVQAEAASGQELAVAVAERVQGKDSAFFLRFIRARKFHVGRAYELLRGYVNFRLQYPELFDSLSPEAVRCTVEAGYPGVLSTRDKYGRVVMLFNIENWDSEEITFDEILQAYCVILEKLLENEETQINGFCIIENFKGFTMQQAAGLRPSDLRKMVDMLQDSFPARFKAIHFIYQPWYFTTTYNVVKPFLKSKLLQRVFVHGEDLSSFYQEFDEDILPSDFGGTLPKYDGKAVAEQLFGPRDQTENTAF

With `CC1=C(/C=C/C(C)=C/C=C/C(C)=C/C=O)C(C)(C)CCC1` [13-cis], for the setting “same cited study”, the “binding to CRALBP” value was “does not bind”.

Regarding `CC1=C(/C=C/C(C)=C/C=C\C(C)=C\CO)C(C)(C)CCC1` [11-cis-retinol], the pKd was 7.22.

Turning to `CC1=C(/C=C/C(C)=C/C=C/C(C)=C/C=O)C(C)(C)CCC1` [11-cis-retinal], the pKd was 7.70.

On to `CC1=C(/C=C/C(C)=C\C=C\C(C)=C\C=O)C(C)(C)CCC1` [9-cis-retinal], for which the negative logarithm of the Kd (pKd) is 7.28.
